In patent US8895695B2, “Template-fixed beta-hairpin peptidomimetics with CXCR4 antagonizing activity” (priority 2003, dated 2014):
Like-named read-outs stand apart in the source and are kept apart here. Bridge positions count the residues as written; N and C are the ends. Square brackets hold non-standard residues; d marks the D form. Peptide text beside a SMILES is read from it. 2Nal = N[C@@H](Cc1ccc2ccccc2c1)C(=O)O; Cit = NC(=O)NCCC[C@H](N)C(=O)O; Dab = NCC[C@H](N)C(=O)O

Assays:
[1] = tested on: human red blood cells (hRBC); assay: Hemolysis; format: cell-based
How it was run: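 Washed fresh human erythrocytes (20% v/v, about 0.9×10^9 cells/ml final) incubated with peptide at 100 μM for 1 h at 37° C. Supernatant diluted 20-fold and OD540 read. Percent hemolysis relative to 0.1% Triton X-100 in H2O (100%), with PBS alone as 0%.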

in vitro [2] = format: in vitro ADME; conditions: plasma
Experimental: 405 μl of plasma/albumin solution were placed in a polypropylene (PP) tube and spiked with 45 μl of compound from a 100 μM solution B, derived from 135 μl of PBS and 15 μl of 1 mM peptide in PBS, pH 7.4. 150 μl aliquots were transferred into individual wells of the 10 kDa filter plate (Millipore MAPPB 1010 Biomax membrane). For “0 minutes controls”: 270 μl of PBS were placed in a PP tube and 30 μl of stock solution B was added and vortexed. 150 μl of control solution was placed into one well of the filter plate and serves as “filtered control”.
Further 150 μl of control solution were placed directly into a receiver well (reserved for filtrate) and serve as “not-filtered control”. The entire plate including evaporation lid was incubated for 60 min at 37° C. Plasma samples (rat plasma: Harlan Sera lab UK, human plasma: Blutspendezentrum Zürich) were centrifuged at least for 2 h at 4300 rpm (3500 g) and 15° C. in order to yield 100 μl filtrate. For “serum albumin”-samples (freshly prepared human albumin: Sigma A-4327, rat albumin: Sigma A-6272, all at 40 mg/ml concentration in PBS) approximately 1 hour of centrifugation is sufficient. The filtrates in the receiver PP plate were analysed by LC/MS as followes: Column: Jupiter C18 (Phenomenex), mobile phases: (A) 0.1% formic acid in water and (B) acetonitrile, gradient: 5%-100% (B) in 2 minutes, electrospray ionization, MRM detection (triple quadrupole). The peak areas were determined and triplicate values are averaged. The binding is expressed in percent of the (filtered and not-filtered time point 0 min) control 1 and 2 by: 100−(100*T60/T0). The average from these values is then calculated (see ref. 9 below).

in vitro [3] = conditions: human
Experimental: Each peptide concentration was assayed in triplicate. […] Wells were then washed once with PBS and subsequently 100 μl MTT reagent (0.5 mg/mL in medium RPMI1640 and, respectively, DMEM) was added to the wells. This was incubated at 37° C. for 2 hours and subsequently the medium was aspirated and 100 μl isopropanol was added to each well. […] For each concentration averages were calculated from triplicates. The percentage of growth was calculated as follows: (OD595peptide-OD595Tz-OD595Empty well)/(OD595Tz-OD595Empty well)×100% and was plotted for each peptide concentration.
‘CCR5’ cells were cultured in DMEM medium with 4500 mg/ml glucose, 10% fetal bovine serum (FBS), supplemented with 50 U/ml Penicillin and 50 μg/ml Streptomycin (Pen/Strept.). Hut/4-3 cells were maintained in RPMI medium, 10% FBS, supplemented with Pen/Strept. and 10 mM HEPES. HELA cells and CCRF-CEM cells were maintained in RPMI1640 plus 5% FBS, Pen/Strept and 2 mM L-Glutamine. Cos-7 cells were grown in DMEM medium with 4500 mg/ml glucose supplemented with 10% FCS, Pen/Strept. and 2 mM L-Glutamine. All cell lines were grown at 37° C. at 5% CO2.

CXCR4 = CXCR4 (Homo sapiens, UniProt P61073); assay: Ca2+-assay method 2 (Flexstation, SDF-1 induced calcium mobilization); format: cell-based; design: expressed in transfected cells; host or cells: mouse pre-B cell line 300-19; conditions: method 2 (Ex. 54-160), mouse pre-B cell line 300-19 with human CXCR4, 10 nM SDF-1
Chain of CXCR4 (P61073 whole entry): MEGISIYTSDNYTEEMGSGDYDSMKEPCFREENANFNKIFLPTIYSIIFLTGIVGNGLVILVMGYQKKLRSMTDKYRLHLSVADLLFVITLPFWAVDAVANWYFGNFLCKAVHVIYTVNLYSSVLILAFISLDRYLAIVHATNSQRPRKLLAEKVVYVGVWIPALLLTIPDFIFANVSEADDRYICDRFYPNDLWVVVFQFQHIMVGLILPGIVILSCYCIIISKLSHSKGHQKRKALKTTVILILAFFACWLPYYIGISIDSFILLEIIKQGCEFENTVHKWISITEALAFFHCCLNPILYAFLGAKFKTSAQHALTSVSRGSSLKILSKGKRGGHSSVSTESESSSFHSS

[4] = read-out: IC50 (nM) Ca^2+ assay
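Wherever GI50 is given: MTT reduction read as absorbance at 595 nm, blank-corrected and expressed as percent growth relative to the time-zero cell reading, triplicate wells per concentration.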

Row | SMILES | Hemolysis at 100 μM [1] [%] | half-life at 10 μM (in vitro [2]; human) [min] | half-life at 10 μM (in vitro [2]; rat) [min] | GI50 at 48 h (in vitro [3]) [µM] | IC50 (CXCR4; [4]) [nM] | Hemolysis at 100 μM ([1]; percent hemolysis, 100 μM peptide, 20% v/v hRBC, 1 hour at 37° C.) [%] | IC50 (CXCR4; IC50 (nM) Ca^2+ assay) [nM]
1 | N=C(N)NCCC[C@@H]1NC(=O)[C@@H]2CSSC[C@H](NC(=O)[C@H](Cc3ccc4ccccc4c3)NC(=O)[C@H](CCCNC(=N)N)NC(=O)[C@H](CCCNC(=N)N)NC(=O)[C@H]3CCCN3C(=O)CNC1=O)C(=O)N[C@@H](Cc1ccc(O)cc1)C(=O)N[C@@H](CCC(N)=O)C(=O)N[C@@H](CCC(N)=O)C(=O)N1CCC[C@@H]1C(=O)N1CCC[C@H]1C(=O)N[C@@H](Cc1ccc(O)cc1)C(=O)N[C@@H](CCCNC(=N)N)C(=O)N[C@@H](CCCNC(N)=O)C(=O)N2 [Ex. 60] (cyclo(YR[Cit]CRG[dP]RR[2Nal]CYQQ[dP]P); disulfide 4-11) | 0.1 | > 300 | > 300 | 62 | 0.18 |  | 
2 | N=C(N)NCCC[C@@H]1NC(=O)[C@@H]2CSSC[C@H](NC(=O)[C@H](Cc3ccc4ccccc4c3)NC(=O)[C@H](CCCNC(=N)N)NC(=O)[C@H](CCCNC(=N)N)NC(=O)[C@H]3CCCN3C(=O)CNC1=O)C(=O)N[C@@H](Cc1ccc(O)cc1)C(=O)N[C@@H](CCC(N)=O)C(=O)N[C@@H](CCC(=O)O)C(=O)N1CCC[C@@H]1C(=O)N1CCC[C@H]1C(=O)N[C@@H](Cc1ccc(O)cc1)C(=O)N[C@@H](CCCNC(=N)N)C(=O)N[C@@H](CCCNC(N)=O)C(=O)N2 [Ex. 61] (cyclo(YR[Cit]CRG[dP]RR[2Nal]CYQE[dP]P); disulfide 4-11) | 0.3 | 273 | > 300 | > 100 | 4.1 |  | 
3 | N=C(N)NCCC[C@@H]1NC(=O)[C@@H]2CSSC[C@H](NC(=O)[C@H](Cc3ccc4ccccc4c3)NC(=O)[C@H](CCCNC(=N)N)NC(=O)[C@H](CCCNC(=N)N)NC(=O)[C@H]3CCCN3C(=O)CNC1=O)C(=O)N[C@@H](Cc1ccc(O)cc1)C(=O)N[C@@H](CCC(N)=O)C(=O)N[C@@H](CCCCN)C(=O)N1CCC[C@@H]1C(=O)N1CCC[C@H]1C(=O)N[C@@H](CCC(=O)O)C(=O)N[C@@H](CCCNC(=N)N)C(=O)N[C@@H](CCCNC(N)=O)C(=O)N2 [Ex. 68] (cyclo(ER[Cit]CRG[dP]RR[2Nal]CYQK[dP]P); disulfide 4-11) | 0.1 | 127 | 81 | > 100 | 1.1 |  | 
4 | N=C(N)NCCC[C@@H]1NC(=O)[C@@H]2CSSC[C@H](NC(=O)[C@H](Cc3ccc4ccccc4c3)NC(=O)[C@H](CCCNC(=N)N)NC(=O)[C@H](CCCNC(=N)N)NC(=O)[C@H]3CCCN3C(=O)CNC1=O)C(=O)N[C@@H](Cc1ccc(O)cc1)C(=O)N[C@@H](CCC(N)=O)C(=O)N[C@@H](CCCCN)C(=O)N1CCC[C@@H]1C(=O)N1CCC[C@H]1C(=O)N[C@@H](Cc1ccc(O)cc1)C(=O)N[C@@H](CCCNC(=N)N)C(=O)N[C@@H](CCC(=O)O)C(=O)N2 [Ex. 75] (cyclo(YRECRG[dP]RR[2Nal]CYQK[dP]P); disulfide 4-11) | 0 | 188 | 142 | > 100 | 3.5 |  | 
5 | C[C@@H](O)[C@@H]1NC(=O)[C@H](Cc2c[nH]cn2)NC(=O)[C@H](Cc2ccc(O)cc2)NC(=O)[C@@H]2CCCN2C(=O)[C@H]2CCCN2C(=O)[C@H](CCCCN)NC(=O)[C@H](CCC(N)=O)NC(=O)[C@H](Cc2ccc(O)cc2)NC(=O)[C@@H]2CSSC[C@H](NC1=O)C(=O)N[C@@H](CCCNC(=N)N)C(=O)NCC(=O)N1CCC[C@@H]1C(=O)N[C@@H](CCCNC(=N)N)C(=O)N[C@@H](CCCNC(=N)N)C(=O)N[C@@H](Cc1c[nH]c3ccccc13)C(=O)N2 [Ex. 120] (cyclo(YHTCRG[dP]RRWCYQK[dP]P); disulfide 4-11) | 0 | 39 | 174 | 78 |  |  | 
6 | C[C@@H](O)[C@@H]1NC(=O)[C@H](CCCNC(=N)N)NC(=O)[C@H](Cc2ccc(O)cc2)NC(=O)[C@@H]2CCCN2C(=O)[C@H]2CCCN2C(=O)[C@H](CCCCN)NC(=O)[C@H](CCC(N)=O)NC(=O)[C@H](Cc2ccc(O)cc2)NC(=O)[C@@H]2CSSC[C@H](NC1=O)C(=O)N[C@@H](CCCNC(=N)N)C(=O)NCC(=O)N1CCC[C@@H]1C(=O)N[C@@H](CCCNC(=N)N)C(=O)N[C@@H](CCCNC(=N)N)C(=O)N[C@@H](Cc1ccc(O)cc1)C(=O)N2 [Ex. 145] (cyclo(YRTCRG[dP]RRYCYQK[dP]P); disulfide 4-11) | 0 |  |  | 97 | 0.38 |  | 
7 | N=C(N)NCCC[C@@H]1NC(=O)[C@@H]2CSSC[C@H](NC(=O)[C@H](Cc3ccc(O)cc3)NC(=O)[C@H](CCCNC(=N)N)NC(=O)[C@H](CCCNC(=N)N)NC(=O)[C@H]3CCCN3C(=O)CNC1=O)C(=O)N[C@@H](Cc1ccc(O)cc1)C(=O)N[C@@H](CCC(N)=O)C(=O)N[C@@H](CCCCN)C(=O)N1CCC[C@@H]1C(=O)N1CCC[C@H]1C(=O)N[C@@H](Cc1ccc(O)cc1)C(=O)N[C@@H](CCCNC(=N)N)C(=O)N[C@@H](Cc1ccc(O)cc1)C(=O)N2 [Ex. 148] (cyclo(YRYCRG[dP]RRYCYQK[dP]P); disulfide 4-11) | 71 |  |  | 46 | 0.65 |  | 
8 | N=C(N)NCCC[C@@H]1NC(=O)[C@@H]2CSSC[C@H](NC(=O)[C@H](Cc3ccc(O)cc3)NC(=O)[C@H](CCCNC(=N)N)NC(=O)[C@H](CCCNC(=N)N)NC(=O)[C@H]3CCCN3C(=O)CNC1=O)C(=O)N[C@@H](Cc1ccc(O)cc1)C(=O)N[C@@H](CCC(N)=O)C(=O)N[C@@H](CCCCN)C(=O)N[C@H](CCC(N)=O)C(=O)N1CCC[C@H]1C(=O)N[C@@H](Cc1ccc(O)cc1)C(=O)N[C@@H](CCCNC(=N)N)C(=O)N[C@@H](CCCNC(N)=O)C(=O)N2 [Ex. 149] (cyclo(YR[Cit]CRG[dP]RRYCYQK[dQ]P); disulfide 4-11) |  |  |  | > 100 |  | 0 | 1
9 | N=C(N)NCCC[C@@H]1NC(=O)[C@@H]2CCC(=O)NCC[C@H](NC(=O)[C@H](Cc3c[nH]c4ccccc34)NC(=O)[C@H](CCCNC(=N)N)NC(=O)[C@H](CCCNC(=N)N)NC(=O)[C@H]3CCCN3C(=O)CNC1=O)C(=O)N[C@@H](Cc1ccc(O)cc1)C(=O)N[C@@H](CCCNC(N)=O)C(=O)N[C@@H](CCCCN)C(=O)N1CCC[C@@H]1C(=O)N1CCC[C@H]1C(=O)N[C@@H](Cc1ccc(O)cc1)C(=O)N[C@@H](CCCNC(=N)N)C(=O)N[C@@H](CCCNC(N)=O)C(=O)N2 [Ex. 153] (cyclo(YR[Cit]ERG[dP]RRW[Dab]Y[Cit]K[dP]P); lactam 4-11) | 1.7 |  |  | 43 | 21.9 |  | 
10 | N=C(N)NCCC[C@@H]1NC(=O)[C@@H]2CSSC[C@H](NC(=O)[C@H](Cc3ccc4ccccc4c3)NC(=O)[C@H](CCCNC(=N)N)NC(=O)[C@H](CCCNC(=N)N)NC(=O)[C@H]3CCCN3C(=O)CNC1=O)C(=O)N[C@@H](Cc1ccc(O)cc1)C(=O)N[C@@H](CCCNC(=N)N)C(=O)N[C@@H](CCCCN)C(=O)N1CCC[C@@H]1C(=O)N1CCC[C@H]1C(=O)N[C@@H](Cc1ccc(O)cc1)C(=O)N[C@@H](CCCNC(=N)N)C(=O)N[C@@H](CCCNC(N)=O)C(=O)N2 [compound 57] (cyclo(YR[Cit]CRG[dP]RR[2Nal]CYRK[dP]P); disulfide 4-11) | 0.1 |  |  | 33 | 4.2 |  | 
11 | N=C(N)NCCC[C@@H]1NC(=O)[C@@H]2CSSC[C@H](NC(=O)[C@H](Cc3ccc4ccccc4c3)NC(=O)[C@H](CCCNC(=N)N)NC(=O)[C@H](CCCNC(=N)N)NC(=O)[C@H]3CCCN3C(=O)CNC1=O)C(=O)N[C@@H](Cc1ccc(O)cc1)C(=O)N[C@@H](CCC(N)=O)C(=O)N[C@@H](CCCCN)C(=O)N1CCC[C@@H]1C(=O)N1CCC[C@H]1C(=O)N[C@@H](CCCNC(=N)N)C(=O)N[C@@H](CCCNC(=N)N)C(=O)N[C@@H](CCCNC(N)=O)C(=O)N2 [compound 63] (cyclo(RR[Cit]CRG[dP]RR[2Nal]CYQK[dP]P); disulfide 4-11) | 0.2 |  |  | 58 | 2 |  | 
